Laboratory results from patent US20100204149A1, “USE OF OCTREOTIDE AS A THERAPEUTIC AGENT” (priority 2007, published 2010).

Columns and labels:
HUVEC = experiment: Endothelial tube formation assay; type: cell-based, human; settings: peptide 10 micrograms per ml, 20 hours
Procedure: The endothelial tube formation assay is based on the ability of endothelial cells to form three-dimensional capillary-like tubular structures when cultured on a gel of basement membrane extract. The endothelial tube formation assay represents a powerful model for studying inhibition and induction of angiogenesis. Pre-labeled HUVEC with Calcein AM were seeded in a 96-well culture plate coated with extracellular metrix (Chemicon international Cat. ECM625) and treated with test peptide—10 micrograms per ml—in full growth medium. […] control was vehicle only. The endothelial cells were allowed to form tubes for 20 hours and were then examined under an inverted fluorescent microscope. Duplicate wells for each treatment were photographed and quantitatively analyzed for an average tubule length using image analysis software ImageProPlus. Raw data were expressed as average tubule lengths in pixels ±standard deviation. Statistic p values were computed using the Student's t-test.

Human A549 cells = experiment: Propidium iodide cell cycle assay; type: cell-based; settings: peptide 10 micrograms per ml, 24 hours
From the text: Human A549 cells (carcinomic human alveolar basal epithelial cells) were utilized in the experiments employing the Propidium iodide cell cycle assay. The eukaryotic cell cycle is a series of events that take place in a cell leading to its replication. The regulation of the cell cycle involves steps crucial to the cell, including detecting and repairing genetic damage, and provision of various checks to prevent uncontrolled cell division. The molecular events that control the cell cycle are ordered and directional; that is, each process occurs in a sequential fashion. The cell cycle consists of four distinct phases: G1 phase, S phase, G2 phase (collectively known as interphase) and M phase. M phase is itself composed of two tightly coupled processes: mitosis, in which the cell's chromosomes are divided between the two daughter cells, and cytokinesis, in which the cell's cytoplasm divides forming distinct cells. Activation of each phase is dependent on the proper progression and completion of the previous one. Cells that have temporarily or reversibly stopped dividing are said to have entered a state of quiescence called Go phase. The relatively brief M phase consists of nuclear division and cytoplasmic division. The first phase within interphase, from the end of the previous M phase till the beginning of DNA synthesis is called G1 (G indicating gap or growth). During this phase the biosynthetic activities of the cell resume at a high rate. This phase is marked by synthesis of various enzymes that are required in S phase, mainly those needed for DNA replication. The ensuing S phase starts when DNA synthesis commences; when it is complete, all of the chromosomes have been replicated. The cell then enters the G2 phase, which lasts until the cell enters mitosis. Significant protein synthesis occurs during this phase, mainly involving the production of microtubules, which are required during the process of mitosis. […]
Propidium iodide is an intercalating agent and a fluorescent molecule that can be used to stain DNA. […] After incubation for 40 min at 37° C., cells were analyzed in the FACS.

RAW 264.7 cells = experiment: Phagocytosis assay with Fluorescein-labeled Escherichia coli; type: cell-based, mouse; settings: peptide 10 micrograms per ml
Procedure: RAW 264.7 (Mouse leukaemic monocyte macrophage cell line) cells were obtained from ATCC and grown in RPMI 1640 medium containing 10% FBS. Cells were incubated in 12×75 mm tubes at 37° C. with test peptide—10 micrograms per ml—for 30 min prior to adding Fluorescein-labeled Escherichia coli bacteria as the agent to be ingested. After the cells were incubated for additional 60 min at 37° C. and allowed to ingest the Fluorescein-labeled Escherichia coli bacteria, cells were fixed with 1% paraformaldehyde. The samples were then analyzed by flow cytometry to determine the amount of phagocytosis as a function of brightness (the greater the phagocytic activity, the more fluorescence in the macrophage population). Data are reported as % positive and the mean fluorescence intensity (MFI) of positively stained cells.

[1] = test system: spleen cells of Ovalbumin immunized Balb/c mice; experiment: Th1/Th2 cytokine profiling assay; type: cell-based, mouse; settings: peptide 10 micrograms per ml; Ovalbumin restimulation; 72 hours
From the text: The Balb/c mice (originated in 1923, it is a popular strain and is used in many different research disciplines. Also classified as an inbred from the production of 20 or more successive brother-sister matings, the Balb/c mouse is albino and small in size) were immunized on Days 1, 15, and 29 with Ovalbumin (Ovalbumin is the main protein found in egg white, commonly used to stimulate an immunological reaction in test animals) in PBS (5 micrograms/injection). On day 50, spleens of the mice were harvested (3 weeks after last boost with Ovalbumin). Cells were cultured (2×10^5/well in triplicate) and incubated with culture medium or test peptide—10 micrograms per ml—for 30 min. Thereafter, additional Ovalbumin was added to the cells at 10 micrograms/ml for in vitro restimulation of the cells. 72 hours later, cell supernatants were harvested and assayed using the Becton Dickinson Mouse Th1/Th2 Cytokine CBA Kit. This kit can be used to measure Interleukin-2 (IL-2), Interleukin-4 (IL-4), Interleukin-5 (IL-5), Interferon-γ (IFN-γ), and Tumor Necrosis Factor-α (TNF-α) protein levels in a single sample. The kit performance has been optimized for analysis of physiologically relevant concentrations ([…] levels) of specific cytokine proteins in tissue culture supernatants and serum samples.

HIV-1IIIB = experiment: HIV-1 antiviral assay (CPE reduction) in CEM-SS cells; settings: peptide 10 micrograms per ml; 6 days post-infection; MTS
[2] = test system: macrophages from human PBMC; experiment: TNF alpha production assay in LPS-stimulated macrophages; type: cell-based; settings: TNF alpha ELISA; peptide 10 micrograms per ml; lipopolysaccharide 200 ng/ml; overnight
Procedure: The macrophages were prepared by adherence of PBMC to the plastic wells of the plates. After 8 days in culture in the presence of recombinant human macrophage-colony stimulating factor at 2 ng/ml, differentiated macrophages were preincubated with test peptide—10 micrograms per ml—for 30 min, followed by in-well stimulation by the addition of lipopolysaccharide at a final concentration of 200 ng/ml. Not stimulated macrophages served as negative background control.
After overnight incubation, supernatants from the control and LPS-stimulated cultures were harvested and assayed for TNF alpha production employing a TNF alpha specific ELISA.

HCMV strain AD169 = experiment: HCMV plaque reduction assay in MRC-5 cells; type: cell-based; settings: peptide 10 micrograms per ml, 7-10 days
From the text: Ganciclovir was used as positive control.

C[C@@H](O)[C@@H]1NC(=O)[C@H](CCCCN)NC(=O)[C@@H](Cc2c[nH]c3ccccc23)NC(=O)[C@H](Cc2ccccc2)NC(=O)[C@@H](NC(=O)[C@H](N)Cc2ccccc2)CSSC[C@@H](C(=O)N[C@H](CO)[C@@H](C)O)NC1=O [Octreotide, H-D-Phe-Cys-Phe-D-Trp-Lys-Thr-Cys-L-threoninol]
% inhibition of tube formation (HUVEC): 8%
Cell cycle analysis G0/G1 (Human A549 cells): 59.1
Cell cycle analysis G2/M (Human A549 cells): 9.2
Cell cycle analysis S (Human A549 cells): 31.8
% of control phagocytosis (RAW 264.7 cells): 105.9%
IFNγ spleen cells; TH1 response (% of control) [1]: 56.0 % of control
IL-2 spleen cells (% of control) [1]: 159.5 % of control
IL-4 spleen cells; TH2 response (% of control) [1]: 114.4 % of control
IL-5 spleen cells; TH2 response (% of control) [1]: 96.1 % of control
TNF-a spleen cells; TH1 response (% of control) [1]: 113.0 % of control
% CPE reduction in HIV-1 infected CEM-SS cells (HIV-1IIIB): 0.0%
% of LPS induction [2]: 105.8%
% plaque reduction (HCMV strain AD169): 0.0%
